The values that follow come from paper PMC6891695, “Evaluation of Antifouling Potential and Ecotoxicity of Secondary Metabolites Derived from Red Algae of the Genus Laurencia” (Marine Drugs, 2019).

For data set [1], the system named is Bacillus mojavensis. As to the kind of experiment: Marine bacteria growth assay (disc diffusion). Conditions: 24 h at 25 °C. It is filed as cell-based. The procedure: (§1) The ability of selected metabolites to inhibit the growth of bacteria was assessed using five strains of marine bacteria involved in marine surface biofilm formation, namely, B. subtilis, B. mojavensis, B. thuringiensis, P. putita and P. pseudoalcaligenes. Bacterial strains were maintained on Zobel marine agar plates. Sterile filter paper discs (4 mm) (GF/F; GE Healthcare, Little Chalfont, UK) were loaded with 40 μL samples of serial dilutions of each tested metabolite, allowed to dry at room temperature and then placed on agar plates (Zobel marine agar, pH = 7.3), which were seeded with a single strain of bacteria. Plates were incubated for 24 h at 25 °C. Marine bacteria growth inhibition was determined by measuring the zone of inhibition in mm around the filter paper disc. As a positive and negative control, standard discs were loaded with 40 μL of 0.5 M penicillin G (2 to 10 mm diameter) or solvent (40 μL methanol), respectively.
For orientation: Agar diffusion results depend on both activity and mobility in agar.

Data set [2] relates to Pseudomonas putita. Description: Marine bacteria growth assay (disc diffusion). It is filed as cell-based. Particulars: 24 h at 25 °C. The procedure:
as §1

Data set [3] concerns Bacillus subtilis. As to the kind of experiment: Marine bacteria growth assay (disc diffusion). It is filed as cell-based. Particulars: 24 h at 25 °C. The procedure:
as §1

In data set [4] the test system is Bacillus thuringiensis. Description: Marine bacteria growth assay (disc diffusion). Conditions: 24 h at 25 °C. It is filed as cell-based. As to the method:
as §1

Data set [5] has as its system Pseudomonas pseudoalcaligenes. Description: Marine bacteria growth assay (disc diffusion). Conditions: 24 h at 25 °C. It is filed as cell-based. The procedure:
as §1

The test system of data set [6] is HEK293 cell line. Description: HEK293 crystal violet assay (cell viability). It is filed as cell-based, human. Conditions: for cytotoxicity in crystal violet assay (in words): HEK293; for EC50: Homo sapiens, HEK293, Crystal violet assay, 48 h incubation. The procedure: (§2) The RTL-W1 cell line, a non-transformed rainbow trout liver cell line that has already been used in environmental toxicity assays, was established from the normal liver of an adult rainbow trout by proteolytic dissociation of liver fragments. RTL-W1 cells were cultured in 75 cm^2 culture flasks (Orange Scientific, Braine l’Alleud, Belgium) at 20 °C in Leibovitz’s (L-15, Sigma-Aldrich, St. Louis, MO, USA) medium supplemented with 5% fetal bovine serum (FBS) and 1% L-glutamine in CO2-free incubator. For the cytotoxicity assays of the selected secondary metabolites, cells were seeded at 3 × 10^4 cells/well density in a 96-well tissue culture plate (Orange Scientific Braine l’Alleud, Belgium) in 100 μL culture medium/well for 2 days before the assays. Three different cytotoxicity protocols were used: 1) The alamar blue/resazurin fluorometric/colorimetric cell viability assay to assess the metabolic capacity and mitochondrial function; 2) the crystal violet cell viability assay for indirect quantification of cell death; and 3) the neutral red cell proliferation assay for lysosomal activity. Two days after seeding the cells, cultures were incubated with various concentrations of selected secondary metabolites at 20 °C for 48 h before cell viability was assessed. […] For the alamar blue/resazurin fluorometric/colorimetric cell viability assay, 100 μL of 3 μg/100 μL Resazurin sodium salt (Sigma-Aldrich, St. Louis, MO, USA) in incubation medium was added on each well and incubated under sterile conditions at 20 °C for 4 h. For the crystal violet cell viability assay, after 48 h of incubation with each secondary metabolite, the culture medium was aspirated and cells were washed twice with sterile dd. H2O. The final wash was aspirated and 50 μL of 0.5% (w/v) crystal violet staining solution (20% methanol in dd. H2O) was added to each well followed by incubation for 20 min at room temperature on a bench rocker with a frequency of 20 oscillations per minute. The staining solution was then aspirated and the plate was washed four times with sterile dd. H2O and left to air-dry without its lid for 3 h at room temperature. Next, 200 μL of methanol was added to each well, and the plate was incubated with its lid on for 20 min at room temperature on a bench rocker with a frequency of 20 oscillations per minute. For the neutral red cell proliferation assay, after 48 h of incubation with each secondary metabolite, the culture medium was aspirated and cells were washed twice with phosphate-buffered saline (PBS, pH 7.4). Cells were then incubated with 100 μL of a 40 μg/mL neutral red staining solution in culture medium at 20 °C for 4 h followed by two washes with 150 μL of PBS. Then cells were incubated with 100 μL neutral red destain solution (50% ethanol, 49% dd. H2O, 1% glacial acetic acid) for 10 min on a bench rocker with a frequency of 80 oscillations per minute. Absorbance was read at 570 nm for alamar blue/resazurin and crystal violet and at 540 nm for neutral red using a Tecan infinite M200 Pro microplate reader. For each assay and each secondary metabolite, a minimum of four independent dose–response experiments with three replicates each were carried out. Calculations were carried out using detailed formulas (AbCam, Cambridge, UK, and results were analyzed with GraphPad Prism v.6.
HEK293 cells, a human embryotic kidney cell line, were obtained from ATCC (ATCC® CRL-1573™) at passage 37 of the original clone and used at passage 38. Cells were cultured routinely in 75 cm^2 culture flasks (Orange Scientific, Braine l’Alleud, Belgium) at 37 °C (5% CO2) in DMEM cell culture medium (Biosera) supplemented with 10% FBS (Sigma-Aldrich, St. Louis, MO, USA) and 1% L-glutamine. All assay conditions and protocols were identical to those described above for RTL-W1 cells with the exception that incubations were carried out at 37 °C. […]

In data set [7] the test system is RTL-W1 cell line. Description: RTL-W1 neutral red assay (lysosome activity). It is filed as cell-based, rainbow trout. Conditions: Oncorhynchus mykiss, 48 h incubation. The procedure:
as §2, with “For the neutral red cell proliferation assay, after 48 h of incubation with each secondary metabolite, the culture medium was aspirated and cells were washed twice with phosphate-buffered saline (PBS, pH 7.4). Cells were then incubated with 100 μL of a 40 μg/mL neutral red staining solution in culture medium at 20 °C for 4 h followed by two washes with 150 μL of PBS. Then cells were incubated with 100 μL neutral red destain solution (50% ethanol, 49% dd. H2O, 1% glacial acetic acid) for 10 min on a bench rocker with a frequency of 80 oscillations per minute.” left out, “For each assay and each secondary metabolite, a minimum of four independent dose–response experiments with three replicates each were carried out.” left out, “v.6. […]” for “v.6.”

For orientation: EC50 means the concentration that produces a half-maximal response. A higher EC50 goes with a need for much substance.

Turning to `CC(C)[C@@H]1CC=C[C@H]2[C@H]3[C@](C)(CC[C@]12CBr)[C@@H](Br)CC[C@@]3(C)O` [Bromosphaerol, reference compound], the “effect on bacterial growth” value in data set [1], in data set [2], in data set [3], in data set [4] and in data set [5] was “none of these metabolites had any effect” in each case. Besides, in data set [6], the “cytotoxicity in crystal violet assay (in words)” value is given as “mild cytotoxicity”. The EC50 came to 97.1 µM in data set [6] and 144 µM in data set [7].

In the case of `C=CC(C)(O)CC[C@@H]1C(=C)CC[C@@H](Br)[C@@]1(C)CCC1OC1(C)C` (stereo partly drawn) [Compound 18], the “effect on bacterial growth” value in data set [1], in data set [2], in data set [3], in data set [4] and in data set [5] was “none of these metabolites had any effect” throughout. The EC50 in data set [6] was > 1000 µM; in data set [7] it was 138 µM.

With `C=C(C1CCC(C)(O)C(Br)C1)C1C(Br)C2C(CCC2(C)O)C1(C)C` (stereo not drawn) [Compound 19, neorogioldiol], the “effect on bacterial growth” value in data set [1], in data set [2], in data set [3], in data set [4] and in data set [5] was “none of these metabolites had any effect” each time. Besides, the results for the EC50 in data set [6] and in data set [7] were 434 µM and > 1000 µM, respectively.

As for `CC1=C2CC[C@@](C)(Cl)[C@@H](Br)C[C@]2(C)[C@@H](C)[C@@H](Br)[C@@H]1O` [Compound 9, perforenol], the “effect on bacterial growth” value in data set [1], in data set [2], in data set [3], in data set [4] and in data set [5] was “none of these metabolites had any effect” each time. The “cytotoxicity in crystal violet assay (in words)” value in data set [6] was “mild cytotoxicity”. For the same compound, the figures for the EC50 in data set [6] and in data set [7] were 81.1 µM and > 1000 µM, respectively.
